Experiments:
Assay type in all cases: cell-based
[1] = molecular target: T1, CCNE1 (Homo sapiens, UniProt P24864); assay: HiBit Assay Protocol for CCNE1 (HIBIT protein quantification, degradation); conditions: HEK293-CCNE1-Hibit cells, compound treatment for 6 hours
T1 construct: host or cells: HEK293-CCNE1-Hibit
Summary of the method: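 Degradation readout: lytic Nano-Glo HiBiT luminescence after 6 h exposure of HEK293-CCNE1-HiBiT cells to 10-point, 3-fold serial dilutions. Signal was scaled between medium-only and DMSO-treated wells, and DC50 came from curve fits.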

[2] = molecular target: T2, CDK2 (Homo sapiens, UniProt P24941); assay: HiBit Assay Protocol for CDK2 (HIBIT protein quantification, degradation); conditions: HEK293-CDK2-Hibit cells, compound treatment for 6 hours; for DC50: ABS DC50
T2 construct: host or cells: HEK293-CDK2-Hibit
Summary of the method: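 DC50 comes from a fitted curve of remaining CDK2-HiBiT luminescence, referenced to DMSO-treated cells and medium-only wells. HEK293-CDK2-HiBiT cells, plated the previous night, received compounds in a 10-point, 3-fold series for 6 h before lysis with LgBiT-containing Nano-Glo HiBiT reagent.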

[3] = molecular target: T3, CDK9 (Homo sapiens, UniProt P50750); assay: HiBit Assay Protocol for CDK9 (HIBIT protein quantification, degradation); conditions: HEK293-CDK9-Hibit cells, compound treatment for 6 hours; for Dmax: 6 h, read-out: CDK9 HIBIT Protein Quantification Maximum; for DC50: ABS DC50
T3 construct: host or cells: HEK293-CDK9-Hibit
T3 sequence (P50750 whole entry): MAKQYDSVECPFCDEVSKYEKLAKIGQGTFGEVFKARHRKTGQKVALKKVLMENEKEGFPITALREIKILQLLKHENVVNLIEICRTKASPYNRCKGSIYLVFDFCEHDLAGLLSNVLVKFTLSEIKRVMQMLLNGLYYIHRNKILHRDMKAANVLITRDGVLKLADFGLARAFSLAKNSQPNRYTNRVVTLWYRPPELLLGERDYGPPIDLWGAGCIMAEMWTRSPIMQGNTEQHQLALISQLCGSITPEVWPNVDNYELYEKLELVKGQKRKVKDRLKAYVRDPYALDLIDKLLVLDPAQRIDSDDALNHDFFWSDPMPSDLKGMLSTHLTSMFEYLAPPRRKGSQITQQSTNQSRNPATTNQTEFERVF
Experimental: HiBit Assay Protocol for CDK9
• 1. The culture medium for HEK293-CDK9-Hibit cell was prepared using DMEM with 10% FBS. • 2. Cells were cultivated in T-75 flasks in a cell culture incubator set at 37° C., 5% CO2, 95% relative humidity. Cells were allowed to reach 80-90% confluence before detaching and splitting. • 3. Cultivated cells were rinsed in T-75 flasks with 5 mL PBS. Aspirated off. Added 1.5 mL trypsin, and incubated the cells at 37° C. for approximately 5 minutes or until the cells detached and floated. • 4. Trypsin was inactivated by adding excess serum containing medium. • 5. Cells were harvested from flask into cell culture medium and then the cell number was counted. HEK293-CDK9-Hibit cells were seeded into 384-well plate (cell density: 1.6×10^5 cells/well/50 uL medium) in DMEM medium according to the plate map below and were incubated overnight at 37° C. and 5% CO2. • Note: Cell Cultured Medium: 90% DMEM+10% FBS+1% Penicillin-Streptomycin Liquid
• 1. Test compounds were dissolved at 3 mM DMSO stock solution. Transferred 45 uL of stock solution to a 384 pp-plate. Perform 3-fold, 10-point dilution via transferring 15 uL compound into 30 uL DMSO by using TECAN liquid handler. • 2. The plates were spinned at room temperature at 1,000 RPM for 1 minute. • 3. Transferred 50 nL of diluted compound from compound source plate into the cell plate by Echo. • 4. After compound treatment for 6 hours, removed the plate from incubators and equilibrated at room temperature for 15 minutes. Prepared the HiBit reagent consists of the following ratios: 10 mL of Nano-Glo®-HiBiT Lytic Buffer, 200 uL of Nano-Glo®-HiBiT Lytic Substrate and 100 uL of LgBiT Protein, mixed thoroughly. Added 20 uL of HiBit reagent into each well and spinned the plates at room temperature at 1,000 RPM for 1 minute to be detected. Plates were then shaken at 600 RPM at room temperature for 20 minutes, and read by EnVision. • 5. The inhibition activity was calculated following the formula below:
[formula] • Note: Where HC was obtained from cells treated with 0.1% DMSO only; LC was obtained from culture medium only. • 6. The ABS DC50 was calculated by fitting the Curve using Xlfit (v5.3.1.3), equation 201: […]

T1 sequence (P24864 whole entry): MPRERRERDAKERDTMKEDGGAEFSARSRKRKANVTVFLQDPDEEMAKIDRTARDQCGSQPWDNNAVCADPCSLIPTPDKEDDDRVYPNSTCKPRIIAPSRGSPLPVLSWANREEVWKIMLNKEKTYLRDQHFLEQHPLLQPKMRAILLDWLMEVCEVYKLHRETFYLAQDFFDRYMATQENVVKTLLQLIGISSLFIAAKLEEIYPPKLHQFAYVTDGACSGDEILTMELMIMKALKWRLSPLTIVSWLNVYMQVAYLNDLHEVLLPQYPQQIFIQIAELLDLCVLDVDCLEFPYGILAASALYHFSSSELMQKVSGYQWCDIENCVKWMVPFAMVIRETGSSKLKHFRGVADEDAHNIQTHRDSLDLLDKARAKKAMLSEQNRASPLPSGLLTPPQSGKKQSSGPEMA

## CC1CCCC1N1C(=O)C2(CC2)c2cnc(NC3CCN(S(=O)(=O)N4CCN(C(=O)CCCc5cccc6c5n(C)c(=O)n6C5CCC(=O)NC5=O)CC4)CC3)nc21 (stereo not drawn) [Compound 27]
[1]
  CCNE1 HIBIT Protein Quantification Maximum: 27%
[2]
  CDK2 HIBIT Protein Quantification Maximum: 57%
  DC50: 19 nM
[3]
  Dmax: 49%

## CC1CCCC1N1C(=O)C2(CC2)c2cnc(NC3CCN(S(=O)(=O)N4CC5(CCCN(C(=O)CCCc6cccc7c6n(C)c(=O)n7C6CCC(=O)NC6=O)C5)C4)CC3)nc21 (stereo not drawn) [Compound 28]
[1]
  CCNE1 HIBIT Protein Quantification Maximum: 8%
[2]
  CDK2 HIBIT Protein Quantification Maximum: 42%
[3]
  Dmax: 8%

## CC1CCCC1N1C(=O)C2(CC2)c2cnc(NC3CCN(S(=O)(=O)N4CC5(CN(C(=O)CCCc6cccc7c6n(C)c(=O)n7C6CCC(=O)NC6=O)C5)C4)CC3)nc21 (stereo not drawn) [Compound 29]
[1]
  CCNE1 HIBIT Protein Quantification Maximum: 47%
[2]
  CDK2 HIBIT Protein Quantification Maximum: 76%
  DC50: 35 nM
[3]
  Dmax: 57%
  DC50: 95.8 nM

## CC1CCCC1N1C(=O)C2(CC2)c2cnc(NC3CCN(S(=O)(=O)N4CC5(CCN(C(=O)CCCc6cccc7c6n(C)c(=O)n7C6CCC(=O)NC6=O)CC5)C4)CC3)nc21 (stereo not drawn) [Compound 30]
[1]
  CCNE1 HIBIT Protein Quantification Maximum: 37%
[2]
  CDK2 HIBIT Protein Quantification Maximum: 72%
  DC50: 11 nM
[3]
  Dmax: 75%
  DC50: 17.6 nM

## CC1CCCC1N1C(=O)C2(CC2)c2cnc(NC3CCN(S(=O)(=O)N4CC5C4CCN5C(=O)CCCc4cccc5c4n(C)c(=O)n5C4CCC(=O)NC4=O)CC3)nc21 (stereo not drawn) [Compound 31]
[1]
  CCNE1 HIBIT Protein Quantification Maximum: 14%
[2]
  CDK2 HIBIT Protein Quantification Maximum: 62%
  DC50: 17 nM
[3]
  Dmax: 15%

## CC1CCCC1N1C(=O)C2(CC2)c2cnc(NC3CCN(S(=O)(=O)N4CCC5(CCN(C(=O)CCCc6cccc7c6n(C)c(=O)n7C6CCC(=O)NC6=O)C5)C4)CC3)nc21 (stereo not drawn) [Compound 32]
[1]
  CCNE1 HIBIT Protein Quantification Maximum: 22%
[2]
  CDK2 HIBIT Protein Quantification Maximum: 59%
  DC50: 86 nM
[3]
  Dmax: 41%

## CC1CCCC1N1C(=O)C2(CC2)c2cnc(NC3CCN(S(=O)(=O)N4CCCN(C(=O)CCCc5cccc6c5n(C)c(=O)n6C5CCC(=O)NC5=O)CC4)CC3)nc21 (stereo not drawn) [Compound 33]
[1]
  CCNE1 HIBIT Protein Quantification Maximum: 9%
[2]
  CDK2 HIBIT Protein Quantification Maximum: 42%
[3]
  Dmax: 4%

## CC1CCCC1N1C(=O)C2(CC2)c2cnc(NC3CCN(S(=O)(=O)N4CC(N(C)C(=O)CCCCCc5cccc6c5n(C)c(=O)n6C5CCC(=O)NC5=O)C4)CC3)nc21 (stereo not drawn) [Compound 34]
[1]
  CCNE1 HIBIT Protein Quantification Maximum: 44%
[2]
  CDK2 HIBIT Protein Quantification Maximum: 72%
  DC50: 6 nM
[3]
  Dmax: 61%
  DC50: 13.6 nM

## CC1CCCC1N1C(=O)C2(CC2)c2cnc(NC3CCN(S(=O)(=O)N4CCCC45CCN(C(=O)CCCCCc4cccc6c4n(C)c(=O)n6C4CCC(=O)NC4=O)C5)CC3)nc21 (stereo not drawn) [Compound 35]
[1]
  CCNE1 HIBIT Protein Quantification Maximum: 21%
[2]
  CDK2 HIBIT Protein Quantification Maximum: 34%
[3]
  Dmax: 17%

## CC1CCCC1N1C(=O)C2(CC2)c2cnc(NC3CCN(S(=O)(=O)N4CC5(CCCCN5C(=O)CCCCCc5cccc6c5n(C)c(=O)n6C5CCC(=O)NC5=O)C4)CC3)nc21 (stereo not drawn) [Compound 37]
[1]
  CCNE1 HIBIT Protein Quantification Maximum: 30%
[2]
  CDK2 HIBIT Protein Quantification Maximum: 40%
[3]
  Dmax: 0%

## CC1CCCC1N1C(=O)C2(CC2)c2cnc(NC3CCN(S(=O)(=O)N4CCN(C(=O)CCCCCc5cccc6c5n(C)c(=O)n6C5CCC(=O)NC5=O)CC4)CC3)nc21 (stereo not drawn) [Compound 38]
[1]
  CCNE1 HIBIT Protein Quantification Maximum: 46%
[2]
  CDK2 HIBIT Protein Quantification Maximum: 71%
  DC50: 4 nM
[3]
  Dmax: 57%
  DC50: 23 nM

## CC1CCCC1N1C(=O)C2(CC2)c2cnc(NC3CCN(S(=O)(=O)N4CC5(CCCN(C(=O)CCCCCc6cccc7c6n(C)c(=O)n7C6CCC(=O)NC6=O)C5)C4)CC3)nc21 (stereo not drawn) [Compound 39]
[1]
  CCNE1 HIBIT Protein Quantification Maximum: 9%
[2]
  CDK2 HIBIT Protein Quantification Maximum: 54%
  DC50: 7 nM
[3]
  Dmax: 6%

## CC1CCCC1N1C(=O)C2(CC2)c2cnc(NC3CCN(S(=O)(=O)N4CC5(CCN(C(=O)CCCCCc6cccc7c6n(C)c(=O)n7C6CCC(=O)NC6=O)CC5)C4)CC3)nc21 (stereo not drawn) [Compound 40]
[1]
  CCNE1 HIBIT Protein Quantification Maximum: 29%
[2]
  CDK2 HIBIT Protein Quantification Maximum: 69%
  DC50: 5 nM
[3]
  Dmax: 44%

## CC1CCCC1N1C(=O)C2(CC2)c2cnc(NC3CCN(S(=O)(=O)N4CCC5(CCN(C(=O)CCCCCc6cccc7c6n(C)c(=O)n7C6CCC(=O)NC6=O)C5)C4)CC3)nc21 (stereo not drawn) [Compound 42]
[1]
  CCNE1 HIBIT Protein Quantification Maximum: 23%
[2]
  CDK2 HIBIT Protein Quantification Maximum: 70%
  DC50: 7 nM
[3]
  Dmax: 17%

## CC1CCCC1N1C(=O)C2(CC2)c2cnc(NC3CCN(S(=O)(=O)N4CCCN(C(=O)CCCCCc5cccc6c5n(C)c(=O)n6C5CCC(=O)NC5=O)CC4)CC3)nc21 (stereo not drawn) [Compound 43]
[1]
  CCNE1 HIBIT Protein Quantification Maximum: 62%
[2]
  CDK2 HIBIT Protein Quantification Maximum: 60%
  DC50: 16 nM
[3]
  Dmax: 32%

## CC1CCCC1N1C(=O)C2(CC2)c2cnc(NC3CCN(S(=O)(=O)C4CCCN(C(=O)CCCCCc5cccc6c5n(C)c(=O)n6C5CCC(=O)NC5=O)C4)CC3)nc21 (stereo not drawn) [Compound 44]
[1]
  CCNE1 HIBIT Protein Quantification Maximum: 44%
[2]
  CDK2 HIBIT Protein Quantification Maximum: 39%
[3]
  Dmax: 5%

## CC1CCCC1N1C(=O)C2(CC2)c2cnc(NC3CCN(S(=O)(=O)N4CCN(C(=O)CCCCCCCc5cccc6c5n(C)c(=O)n6C5CCC(=O)NC5=O)CC4)CC3)nc21 (stereo not drawn) [Compound 46]
[1]
  CCNE1 HIBIT Protein Quantification Maximum: 35%
[2]
  CDK2 HIBIT Protein Quantification Maximum: 74%
  DC50: 5 nM
[3]
  Dmax: 44%

## CC1CCCC1N1C(=O)C2(CC2)c2cnc(NC3CCN(S(=O)(=O)N4CCC5(CCN(C(=O)CCCCCCCc6cccc7c6n(C)c(=O)n7C6CCC(=O)NC6=O)C5)C4)CC3)nc21 (stereo not drawn) [Compound 47]
[1]
  CCNE1 HIBIT Protein Quantification Maximum: 18%
[2]
  CDK2 HIBIT Protein Quantification Maximum: 44%
[3]
  Dmax: 10%

## CC1CCCC1N1C(=O)C2(CC2)c2cnc(NC3CCN(S(=O)(=O)C4CCCN(C(=O)CCCCCCCc5cccc6c5n(C)c(=O)n6C5CCC(=O)NC5=O)C4)CC3)nc21 (stereo not drawn) [Compound 48]
[1]
  CCNE1 HIBIT Protein Quantification Maximum: 42%
[2]
  CDK2 HIBIT Protein Quantification Maximum: 35%
[3]
  Dmax: 15%

## CC1CCCC1N1C(=O)C2(CC2)c2cnc(NC3CCN(S(=O)(=O)N4CC(N(C)C(=O)CCCCCCCCCc5cccc6c5n(C)c(=O)n6C5CCC(=O)NC5=O)C4)CC3)nc21 (stereo not drawn) [Compound 49]
[1]
  CCNE1 HIBIT Protein Quantification Maximum: 8%
[2]
  CDK2 HIBIT Protein Quantification Maximum: 62%
  DC50: 34 nM
[3]
  Dmax: 66%
  DC50: 6.53 nM

## CC1CCCC1N1C(=O)C2(CC2)c2cnc(NC3CCN(S(=O)(=O)N4CC5(CCCN(C(=O)CCCCCCCCCc6cccc7c6n(C)c(=O)n7C6CCC(=O)NC6=O)C5)C4)CC3)nc21 (stereo not drawn) [Compound 50]
[1]
  CCNE1 HIBIT Protein Quantification Maximum: 16%
[2]
  CDK2 HIBIT Protein Quantification Maximum: 37%
[3]
  Dmax: 17%

From patent US20260070917A1, “CYCLIN DEPENDENT KINASE DEGRADERS AND METHODS OF USE THEREOF” (Differentiated Therapeutics Inc, priority 2023, published 2026)
